Measured values taken from ChEMBL document CHEMBL3832761, “MMV Pathogen Box Bioactivity Data” (2017).
Active and inactive are the calls of the source. The rule behind the calls is not given here.

How the values were obtained:
Toxoplasma gondii [1] = experiment: AntiToxoplasma gondii activity data Inhibition of plaque forming efficiency (%) Experiment B; format: functional; parameters: concentration or dose not given beside the values
Toxoplasma gondii [2] = experiment: AntiToxoplasma gondii activity data 2-day killing assay: IC50 (uM), Experiment G; format: functional, organism-based
Toxoplasma gondii [3] = experiment: AntiToxoplasma gondii activity data 2-day killing assay: inhibition at 10 uM (%) Experiment E; format: functional
Toxoplasma gondii [4] = experiment: AntiToxoplasma gondii activity data Inhibition of plaque forming efficiency (%) Experiment A; format: functional; parameters: concentration or dose not given beside the values
Toxoplasma gondii [5] = experiment: AntiToxoplasma gondii activity data 2-day killing assay: IC50 (uM), Experiment F; format: functional, organism-based
Toxoplasma gondii [6] = experiment: AntiToxoplasma gondii activity data 2-day killing assay: inhibition at 10 uM (%) Experiment C; format: functional; details: 48 h
[7] = HL60 CC50 (uM) Cytotoxicity; format: functional; details: HL-60
Toxoplasma gondii [8] = experiment: AntiToxoplasma gondii activity data 2-day killing assay: inhibition at 10 uM (%) Experiment D; format: functional
Schistosoma mansoni [9] = experiment: AntiSchistosoma mansoni activity Juveniles IC50 (uM); format: functional, organism-based
Schistosoma mansoni [10] = experiment: AntiSchistosoma mansoni activity Adults IC50 (uM); format: functional, organism-based
Schistosoma mansoni [11] = experiment: AntiSchistosoma mansoni activity Newly Transformed Schistosomula: inhibition at 10 uM at 72h (%); format: functional
MRC5 = experiment: MRC5 CC50 (uM) Cytotoxicity; format: functional; details: Homo sapiens
Schistosoma mansoni [12] = experiment: AntiSchistosoma mansoni activity Larva IC50 (uM); format: functional, organism-based
HepG2 = experiment: Cytotoxicity data HepG2 CC20 (uM); format: functional
Schistosoma mansoni [13] = experiment: AntiSchistosoma mansoni activity Adults: Effect at 10 uM after 48h; format: functional, organism-based
Brugia pahangi = experiment: AntiBrugia pahangi activity Average inhibition motility at 10 uM (%); format: functional
Onchocerca lienalis = experiment: AntiOnchocerca activity O. lienalis microfilariae Motility reduction (%); format: functional; parameters: concentration or dose not given beside the values
Onchocerca ochengi [14] = experiment: AntiOnchocerca activity O. ochengi adult females: final mean inhibition motility at 10 uM on Day 7 (%); format: functional
Onchocerca ochengi [15] = experiment: AntiOnchocerca activity O. ochengi adult males: final mean inhibition motility at 10 uM on Day 5 (%); format: functional
Onchocerca gutturosa [16] = experiment: AntiOnchocerca activity O. gutturosa adult males: MTT reduction at 12.5 uM (%); format: functional; parameters: scale not given: the % may be the effect or the level left
Onchocerca gutturosa [17] = experiment: AntiOnchocerca activity O. gutturosa adult males: Motility reduction at 12.5 uM (%); format: functional; parameters: scale not given: the % may be the effect or the level left
Onchocerca volvulus = experiment: AntiOnchocerca activity O. volvulus L3 Molting assay: inhibition at 10 uM (%); format: functional
Schistosoma mansoni [18] = experiment: AntiSchistosoma mansoni activity Newly Transformed Schistosomula: IC50 at 72h (uM); format: functional, organism-based
L6 = experiment: L6 CC50 (uM) Cytotoxicity; format: functional; details: Rattus norvegicus
Leishmania infantum = experiment: AntiLeishmania activity L. infantum (macrophages) IC50 (uM); format: functional, organism-based
Trypanosoma brucei [19] = experiment: AntiTrypanosoma brucei activity T. b. rhodesiense IC50 (uM); format: functional, organism-based
Leishmania major = experiment: AntiLeishmania activity L. major IC50 (uM); format: functional, organism-based
Leishmania = experiment: AntiLeishmania activity Toxicity on infected PMM (uM); format: functional
Leishmania donovani [20] = experiment: AntiLeishmania activity L. donovani (axenic) IC50 (uM); format: functional, organism-based
Trypanosoma cruzi = experiment: AntiTrypanosoma cruzi activity IC50 (uM); format: functional, organism-based
Trypanosoma brucei [21] = experiment: AntiTrypanosoma brucei activity T. b. brucei IC50 (uM); format: functional, organism-based
Leishmania donovani [22] = experiment: AntiLeishmania activity L. donovani (macrophages) IC50 (uM); format: functional, organism-based
[23] = PMM CC50 (uM) Cytotoxicity; format: functional; details: Macrophage

## CC(=O)N1CCN(c2ccc(Oc3ccc(Cl)cc3O)cc2)CC1
Toxoplasma gondii [1]
  Inhibition: ~90%
Toxoplasma gondii [2]
  IC50: no inhibition
Toxoplasma gondii [3]
  Inhibition: 64.6%
Toxoplasma gondii [4]
  Inhibition: ~90%
Toxoplasma gondii [5]
  IC50: no inhibition
Toxoplasma gondii [6]
  inhibition at 10 µM: 71%
[7]
  CC50: > 50 µM
Toxoplasma gondii [8]
  Inhibition: 22.4%

## COc1ccc(-c2onc(C(F)(F)F)c2-c2ccc(Cl)cc2)c(O)c1
Schistosoma mansoni [9]
  IC50: 7.02 µM
Schistosoma mansoni [10]
  IC50: 5.3 µM
Schistosoma mansoni [11]
  Inhibition: 20%
MRC5
  CC50: 8.3 µM
Schistosoma mansoni [12]
  IC50: 3.36 µM

## COCC(C)NC(=O)CSc1ncnc2sc(-c3ccccc3)cc12 (stereo not given)
HepG2
  CC20: >80 µM
Schistosoma mansoni [11]
  Inhibition: 50%
Schistosoma mansoni [13]
  Activity: inactive

## CC(C)(C)c1ccc(N[C@@H]2CCCC[C@H]2NC(=O)c2ccco2)cc1
Brugia pahangi
  Inhibition: 3%
Onchocerca lienalis
  Activity: 13.3%
Onchocerca ochengi [14]
  Inhibition: 0%
Onchocerca ochengi [15]
  Inhibition: 1%
Onchocerca gutturosa [16]
  Activity: 37.7%
Onchocerca gutturosa [17]
  Activity: 50%
HepG2
  CC20: 35.9 µM
Onchocerca volvulus
  Inhibition: 80%
[7]
  CC50: > 50 µM

## CC(C)(C)OC(=O)N1CCC(Cn2nc(-c3cnc4ccccc4c3)c3c(N)ncnc32)CC1
Toxoplasma gondii [1]
  Inhibition: ~75%
Toxoplasma gondii [3]
  Inhibition: 0%
Toxoplasma gondii [4]
  Inhibition: 100%
Toxoplasma gondii [6]
  inhibition at 10 µM: 1.88%
[7]
  CC50: > 50 µM
Toxoplasma gondii [8]
  Inhibition: 36.1%

## Cc1ccccc1C(=O)N1N=C(Nc2ccccc2)SC1(C)C
Schistosoma mansoni [9]
  IC50: 5.8 µM
Schistosoma mansoni [10]
  IC50: 5.3 µM
HepG2
  CC20: 8 µM
Schistosoma mansoni [11]
  Inhibition: 0%
MRC5
  CC50: > 50 µM
Schistosoma mansoni [12]
  IC50: 6.7 µM

## CS(=O)(=O)c1ccc(C(=O)N(CC2CCCO2)c2nc3ccccc3s2)cc1[N+](=O)[O-] (stereo not given)
Schistosoma mansoni [9]
  IC50: 3.22 µM
Schistosoma mansoni [10]
  IC50: 4.8 µM
HepG2
  CC20: 6.94 µM
Schistosoma mansoni [11]
  Inhibition: 100%
MRC5
  CC50: 6.2 µM
Schistosoma mansoni [12]
  IC50: 0.29 µM

## c1ccc(Oc2ccc(-c3cncc(-c4ccc5[nH]ccc5c4)n3)cc2)cc1
Schistosoma mansoni [18]
  IC50: 0.27 µM
Schistosoma mansoni [9]
  IC50: 2.1 µM
Schistosoma mansoni [10]
  IC50: 3.7 µM
HepG2
  CC20: 25.7 µM
Schistosoma mansoni [11]
  Inhibition: 100%
MRC5
  CC50: 20 µM
Schistosoma mansoni [13]
  Activity: Active
Schistosoma mansoni [12]
  IC50: 1.4 µM

## Cc1nc(-c2ccccn2)nc(N2CCC(Cc3ccccc3)C2)c1Cl (stereo not given)
L6
  CC50: 15.2 µM
Leishmania infantum
  IC50: 4.03 µM
Trypanosoma brucei [19]
  IC50: 5.62 µM
Leishmania major
  IC50: 8.96 µM
Leishmania
  Toxicity on infected macrophages: 16.7 µM
Leishmania donovani [20]
  IC50: 0.03 µM
HepG2
  CC20: 10.2 µM
MRC5
  CC50: 15.5 µM
Trypanosoma cruzi
  IC50: 0.97 µM
Trypanosoma brucei [21]
  IC50: 6.61 µM
Leishmania donovani [22]
  IC50: 4.2 µM
[23]
  CC50: 16 µM

## CC(C(=O)Nc1ccc2oc(-c3ccncc3)nc2c1)c1ccccc1 (stereo not given)
Toxoplasma gondii [1]
  Inhibition: ~75%
Toxoplasma gondii [2]
  IC50: no inhibition
Toxoplasma gondii [3]
  Inhibition: 1.05%
Toxoplasma gondii [4]
  Inhibition: 100%
Toxoplasma gondii [5]
  IC50: no inhibition
Toxoplasma gondii [6]
  inhibition at 10 µM: 3.75%
[7]
  CC50: > 50 µM
Toxoplasma gondii [8]
  Inhibition: 62.6%

## Nc1ccc2ncnc(Nc3ccc(OCc4cccc(F)c4)c(Cl)c3)c2c1
Leishmania infantum
  IC50: > 32 µM
Trypanosoma brucei [19]
  IC50: 13.1 µM
Leishmania major
  IC50: 10.4 µM
HepG2
  CC20: 9.72 µM
MRC5
  CC50: > 32 µM
Trypanosoma cruzi
  IC50: 4.03 µM
Trypanosoma brucei [21]
  IC50: > 32 µM
[23]
  CC50: > 32 µM

## CNc1nnc(Sc2cnn(-c3ccccc3)c(=O)c2Cl)s1
Schistosoma mansoni [18]
  IC50: 0.15 µM
Schistosoma mansoni [9]
  IC50: 3.7 µM
HepG2
  CC20: 1.55 µM
Schistosoma mansoni [11]
  Inhibition: 100%

## O=C(c1ccc(F)cc1)N(CCNc1ccccc1)c1ccccc1
Brugia pahangi
  Inhibition: 17%
Onchocerca lienalis
  Activity: 13.3%
Onchocerca ochengi [14]
  Inhibition: 0%
Onchocerca ochengi [15]
  Inhibition: 0%
Onchocerca gutturosa [16]
  Activity: 0%
Onchocerca gutturosa [17]
  Activity: 28.6%
HepG2
  CC20: 18.5 µM
Onchocerca volvulus
  Inhibition: 89%
[7]
  CC50: > 50 µM

## Cc1cc2nc(NC(=O)C(C)(C)C)nc(Cl)c2n1Cc1ccc(Cl)cc1
Toxoplasma gondii [1]
  Inhibition: ~50%
Toxoplasma gondii [2]
  IC50: no inhibition
Toxoplasma gondii [3]
  Inhibition: 0%
Toxoplasma gondii [4]
  Inhibition: ~85%
Toxoplasma gondii [5]
  IC50: no inhibition
Toxoplasma gondii [6]
  inhibition at 10 µM: 0%
[7]
  CC50: > 25 µM
Toxoplasma gondii [8]
  Inhibition: 63.9%
